Laboratory results: patent US20050208036A1, “Methods for treating or preventing GVHD” (University of North Carolina at Chapel Hill, priority 2003, published 2005)
Values joined by “and” are separate entries in the source; they are usually repeats but may differ in a detail not shown here. Equal entries are not always repeated. Values belong to the molecule of their own block, whether it stands above or below them.

Legend:
[1] = tested on: alloreactive transgenic T cells; test: T cell apoptosis in MLR of alloreactive and non-alloreactive transgenic T cells, Annexin V binding; type: cell-based; conditions: 10 μM, 1:1 alloreactive and non-alloreactive transgenic T cells
Description: (§1) The tolerance induced by PS1145 was specific to alloantigen, as responses to non-specific mitogens remained largely intact.

TNF-α [2] = test: LPS-induced TNF-α expression in mice, ELISA; type: in vivo, B6 and BALB/c mice; conditions: 1 μg/kg LPS; 10, 25 or 50 mg/kg oral; 24-72 hours post-treatment; vs controls
Description: (§2) B6 and BALB/c mice were given 1 μg/kg of LPS, after which they orally received either control methylcellulose or PS1145 in methylcellulose. Animals were evaluated for expression of the cytokine TNF-α and the chemokine MIP-1α (CCL3) at 24-72 hours post-treatment, as assessed by ELISA.

B6D2 recipient mice = test: Murine stem cell transplant GVHD model, survival; type: in vivo, mouse
Description: A murine stem cell transplant model was developed in which bone marrow was removed from B6 (H2^b) donors. The marrow was depleted of T cells by incubation with an anti-Thy 1.2 monoclonal antibody coupled to magnetic beads, followed by removal of T cells that bound the antibody using a magnetic column. Thy 1.2^+ T cells were isolated from splenocytes using a similar approach and were added back to the bone marrow. Animals received between 1-5×10^6 T cells and 3×10^6 bone marrow cells after lethal irradiation. The T cell-depleted marrow was transplanted into B6D2H2^bxd recipient mice that had been subjected to a lethal dose of irradiation (8.5 Gy). Recipient mice were divided into six groups, three of which received 1 mg PS1145 starting on day −2, day 0, or day 6 relative to transplant. The other three groups received methylcellulose as a control, starting on day −2, 0, or 6. PS1145 suspended in methylcellulose or methylcellulose alone was administered daily by gavage, through day 14. Mice were evaluated every three days for weight loss, GVHD, and outcome. […] Treatment with PS1145 that started on day 6 was correlated with an earlier death (all mice were dead by about day 12) as compared to treatment that started on day 0 (all mice were dead by about day 28). All mice in the methylcellulose control group were dead by day 20.
In a similar experiment, recipient mice were subjected to 1125 cGy of irradiation and then treated with oral doses of 5 mg/kg methylcellulose or PS1145. In this case, however, all animals in both groups were dead by about day 42 post-transplant (FIG. 12). […] Thus, the use of PS1145 to ameliorate GVHD via an oral route was not effective using very heavy doses of irradiation.
Experiments also were performed in which 5 mg/kg PS1145 or methylcellulose was given intraperitoneally (i.p.) to mice starting on day −2 and ending on day 14 post-transplantation. B6D2 mice that had received 850 cGy of irradiation were injected with 3×10^6 bone marrow cells from B6 donors and 5×10^6 selected B6 T cells.

TNF-α [3] = test: TNF-α levels in colon and small intestine after transplant, cytokine bead assay; type: in vivo, mouse; conditions: 5 mg/kg i.p. on days −1 and −2, days 3-18, vs untreated
Description: (§3) Expression of TNF-α and MIP-1α (CCL3) was evaluated in mice treated i.p. with PS1145 and subjected to transplantation of T cell-depleted bone marrow with Thy 1-selected splenocytes as a source of T cells. Mice in the test group received 5 mg/kg PS1145 on days −1 and −2 relative to transplant, while control animals were untreated. Animals were sacrificed from days 3-18 for assessment of TNF-α levels in the colon and small intestine and MIP-1α levels in the liver. A cytokine bead assay was used to measure levels of these factors. […] While TNF-α levels in control animals increased from day 3 to day 18, the level was relatively constant in animals exposed to PS1145.

[4] = tested on: donor CD4+ T cells from C57BL/6 mice with irradiated bm12 splenocytes; test: Mixed lymphocyte reaction (MLR): proliferative response of T cells to alloantigen, 3H-thymidine incorporation; type: cell-based, mouse
Description: (§4) A bulk MLR was prepared by combining donor CD4^+ T cells obtained from C57BL/6 (H-2^b) mice (National Institutes of Health, Bethesda, Md., U.S.A.) in a 1:1 ratio with T cell-depleted, irradiated splenocytes obtained from bm12 (H-2^bm12), MHC class II disparate mice (The Jackson Laboratory, Bar Harbor, Me., U.S.A.). An anti-CD40L monoclonal antibody (hybridoma MR1, hamster IgG), obtained by culturing the hybridoma in 10% FBS/DMEM in an Accusyst Jr. hollow fiber bioreactor (Cellex Biosciences, Minneapolis, Minn., U.S.A.), was added to the bulk MLR culture and the cells were incubated for 7-10 days. Proliferative responses of the T cells to alloantigen were determined on days 2, 4, 5, 6, and 7 by measuring ^3H-thymidine incorporation into newly synthesized DNA. The antibody removed from the cultures by washing three times with 2% FBS/PBS, and aliquots of the cells (0.3×10^5, 10^5, and 3×10^5 cells) were administered in 0.5 mL DMEM by tail vein injection to bm12 mice subjected to a sublethal dose (6.0 Gy) of total body irradiation. Control irradiated mice received the same amounts of cells from MLR that had not been exposed to anti-CD40L. The mice were monitored for GVHD lethality, weight changes, and packed cell volume (PCV). Cells remaining from the primary MLR were mixed with fresh bm12 splenocytes for a secondary MLR, and proliferative responses to allogen were measured on days 1 through 5. Aliquots of the secondary MLR cultures were subsequently administered to irradiated bm12 mice.
An MLR culture was prepared consisting of a 1:1 ratio of CD4+ T cells obtained from C57BL/6 mice and T cell-depleted, irradiated MHC class II-disparate stimulators obtained from bm12 mice. PS1145, a potent inhibitor of IκB kinase and thus NF-κB activation, was added to the MLR culture at concentrations of 0.2 μM, 0.6 μM, 1 μM, 2 μM, 6 μM, and 10 μM. Control MLR cultures were left untreated or were treated with DMSO. […] This hyporesponsiveness persisted after washing of the T cells and re-exposure to alloantigen. As with anti-CD40L treated MLR, alloantigen hyporesponsiveness was reversed by addition of 50 U/mL exogenous IL-2 (FIG. 7).
as §1
CD4^+ CD25^+ cells were required in cultures tolerized by anti-CD40L. To determine whether CD25^+ T cells, which express the high-affinity IL-2 receptor a chain (IL-2Rα), were required for PS 1145 induction of tolerance, CD25^+-depleted T cells were used in primary and secondary MLR. […] Similarly, CD4^+ CD25^+ T cells were not required for tolerance induction by PS1145 in secondary cultures.

bm12 mice = test: GVHD lethality after transfer of MLR cells into sublethally irradiated MHC class II disparate recipients; type: in vivo, mouse
Description: as §4
CD4^+ T cells that were allowed to recover from a vehicle-treated 7 day MLR were uniformly fatal upon adoptive transfer into sublethally irradiated MHC class-II disparate recipients, whereas T cells subjected to ex vivo PS1145 treatment were lethal to only 22% of recipients. Mice were intravenously injected with either 10^5 naïve T cells, 10^5 cells from 7 day control MLR or 10^5 cells from MLR exposed to 6 μM or 10 μM PS1145 for 7 days. […] Thus, the NF-κB pathway is a critical regulator of T cell responses, and provides an ex vivo approach to inducing alloantigen-specific tolerance as a means of preventing GVHD.

MIP-1α (CCL3) [5] = test: MIP-1α levels in liver after transplant, cytokine bead assay; type: in vivo, mouse; conditions: 5 mg/kg i.p. on days −1 and −2, days 3-18, vs untreated
Description: as §3

MIP-1α (CCL3) [6] = test: LPS-induced MIP-1α (CCL3) expression in mice, ELISA; type: in vivo, B6 and BALB/c mice; conditions: 1 μg/kg LPS; 10, 25 or 50 mg/kg oral; 24-72 hours post-treatment; vs controls
Description: as §2

NEMO = NEMO (Homo sapiens, UniProt Q9Y6K9); test: NBD mutants: ability to bind to NEMO; type: binding
NEMO, sequence (Q9Y6K9 whole entry, species assumed): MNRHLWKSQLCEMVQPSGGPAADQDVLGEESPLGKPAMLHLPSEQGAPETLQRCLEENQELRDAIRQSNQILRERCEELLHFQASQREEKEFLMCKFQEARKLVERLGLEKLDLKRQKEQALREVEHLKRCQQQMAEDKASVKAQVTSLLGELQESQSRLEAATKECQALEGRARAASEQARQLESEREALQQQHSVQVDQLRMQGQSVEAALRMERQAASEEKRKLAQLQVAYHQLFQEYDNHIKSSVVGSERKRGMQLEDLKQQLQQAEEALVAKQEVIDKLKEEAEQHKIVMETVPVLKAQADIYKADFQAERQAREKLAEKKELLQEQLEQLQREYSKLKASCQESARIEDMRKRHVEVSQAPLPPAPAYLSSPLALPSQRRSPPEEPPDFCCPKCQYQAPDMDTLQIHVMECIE

[7] = 5 mg/kg i.p. day −2 to day 14, 850 cGy
[8] = oral 5 mg/kg, 1125 cGy irradiation

Molecule: O=C(Nc1cc(Cl)cc2c1[nH]c1cnccc12)c1cccnc1 [PS1145]
rate of T cell apoptosis [1]: increased the rate of T cell apoptosis selectively in alloreactive cells
TNF-α expression (TNF-α [2]): markedly reduced
day by which all mice were dead (B6D2 recipient mice; 1 mg daily by gavage from day 0 through day 14, 8.5 Gy): ~28 days
day by which all mice were dead (B6D2 recipient mice; 1 mg daily by gavage from day 6 through day 14, 8.5 Gy): ~12 days
mice surviving at least through day 50 (B6D2 recipient mice; 1 mg daily by gavage from day −2 through day 14, 8.5 Gy): about 20%
Survival Day 30 (B6D2 recipient mice; [7]): 7/10
Survival Day 60 (B6D2 recipient mice; [7]): 5/10
survival of B6D2 mice (B6D2 recipient mice; [7]): 50%
day post-transplant by which all animals were dead (B6D2 recipient mice; [8]): ~42 days
survival time compared with methylcellulose group (B6D2 recipient mice; [8]): little difference
TNF-α expression in colon and small intestine (TNF-α [3]): significantly decreased
response on re-exposure to allogeneic APC ([4]; 10 μM, re-exposed to allogeneic APC): remained hyporesponsive
proliferation after secondary stimulus of CD3+ and CD28+ cells ([4]; 10 μM, secondary stimulus CD3+ and CD28+ cells): comparable to controls
alloantigen hyporesponsiveness with exogenous IL-2 ([4]; 50 U/mL exogenous IL-2 added): reversed
T cell proliferation in response to alloantigen ([4]; MLR treated with 6 μM and 10 μM): reduced level of proliferation
hyporesponsiveness after washing of the T cells and re-exposure to alloantigen ([4]; after washing, re-exposure to alloantigen): persisted
Long term survival (>90 days) (bm12 mice; 10^5 cells i.v. from MLR exposed to 6 μM for 7 days): five of eight and 5/8
Long term survival (>90 days) (bm12 mice; 10^5 cells i.v. from MLR exposed to 10 μM for 7 days): nine of ten and 9/10
recipients to which treated T cells were lethal (bm12 mice; T cells treated ex vivo, adoptive transfer): 22%
long-term survival rate (bm12 mice; recipients of donor T cells treated ex vivo): 78%
MIP-1α levels in the liver (MIP-1α (CCL3) [5]): Analogous results
MIP-1α (CCL3) expression (MIP-1α (CCL3) [6]): markedly reduced

Molecule: LDFSWL (Hexapeptide variant of human IKK-beta NBD (SEQ ID NO2) having F in the 3rd position.) [NBD mutant]
Binds to NEMO (NEMO): Yes

Molecule: LDSWSL (listed as Homo sapiens)
Binds to NEMO (NEMO): Yes

Molecule: LDWAWL (Hexapeptide variant of human IKK-beta NBD (SEQ ID NO2) having A in the 4th position.) [NBD mutant]
Binds to NEMO (NEMO): Yes

Molecule: LDWEWL (Hexapeptide variant of human IKK-beta NBD (SEQ ID NO2) having E in the 4th position.) [NBD mutant]
Binds to NEMO (NEMO): Yes

Molecule: LDWSAL (Hexapeptide variant of human IKK-beta NBD (SEQ ID NO2) having A in the 5th position.) [NBD mutant]
Binds to NEMO (NEMO): No

Molecule: LDWSFL (Hexapeptide variant of human IKK-beta NBD (SEQ ID NO2) having F in the 5th position.) [NBD mutant]
Binds to NEMO (NEMO): Yes

Molecule: LDWSWA (Hexapeptide variant of human IKK-beta NBD (SEQ ID NO2) having A in the 6th position.) [NBD mutant]
Binds to NEMO (NEMO): Yes

Molecule: LDWSYL (Hexapeptide variant of human IKK-beta NBD (SEQ ID NO2) having Y in the 5th position.) [NBD mutant]
Binds to NEMO (NEMO): No

Molecule: LDYSWL (Hexapeptide variant of human IKK-beta NBD (SEQ ID NO2) having Y in the 3rd position.) [NBD mutant]
Binds to NEMO (NEMO): Yes

Molecule: LNWSWL (Hexapeptide variant of human IKK-beta NBD (SEQ ID NO2) having N in the 2nd position.) [NBD mutant]
Binds to NEMO (NEMO): Yes

The next lines start with the values.

Binds to NEMO (NEMO): Yes
Molecule: ADWSWL (Hexapeptide variant of human IKK-beta NBD (SEQ ID NO2) having A in the 1st position.) [NBD mutant]

Binds to NEMO (NEMO): No
Molecule: LAWSWL (Hexapeptide variant of human IKK-beta NBD (SEQ ID NO2) having A in the 2nd position.) [NBD mutant]

Binds to NEMO (NEMO): No
Molecule: LDASAL (Hexapeptide variant of human IKK-beta NBD (SEQ ID NO2) having A in the 3rd and 5th positions.) [NBD mutant]

Binds to NEMO (NEMO): No
Molecule: LDASWL (Hexapeptide variant of human IKK-beta NBD (SEQ ID NO2) having A in the 3rd position.) [NBD mutant]

Binds to NEMO (NEMO): Yes
Molecule: LEWSWL (Hexapeptide variant of human IKK-beta NBD (SEQ ID NO2) having E in the 2nd position.) [NBD mutant]
